Three compounds from ChEMBL document CHEMBL2040830, “Makomotindoline from Makomotake, Zizania latifolia infected with Ustilago esculenta” (2012) can be followed below.

Molecules are shown by their SMILES. The source made the active and inactive calls. The rule behind the calls is not given here.

Experiment [1] relates to C6. The experiment can be described thus: Cytotoxicity against rat C6 cells assessed as cell death after 24 to 48 hrs by MTT assay. The class given is functional, cell-based. (In general: Formazan colour is commonly taken as a measure of viable cells.)
For experiment [2], the system named is C6. Description: Cytotoxicity against rat C6 cells assessed as decrease in cell number at 10 uM after 24 hrs by MTT assay. The class given is functional. More on the design: scale not given: the % may be the effect or the level left.
Experiment [3] has as its system C6. Description: Cytotoxicity against rat C6 cells assessed as decrease in cell number at 100 uM after 48 hrs by MTT assay. Format: functional. Details: scale not given: the % may be the effect or the level left.
Experiment [4] deals with C6. The experiment can be described thus: Cytotoxicity against rat C6 cells assessed as cell death at 10 to 100 uM after 48 hrs by MTT assay. Format: functional, cell-based.
Experiment [5] relates to C6. The experiment can be described thus: Cytotoxicity against rat C6 cells assessed as decrease in cell number at 100 uM after 24 hrs by MTT assay. The class given is functional. Details: scale not given: the % may be the effect or the level left.
Experiment [6] deals with C6. The experiment can be described thus: Growth stimulation of rat C6 cells at 100 uM after 24 hrs by MTT assay relative to control. The class given is functional.
Experiment [7] relates to C6. Description: Growth stimulation of rat C6 cells at 100 uM after 48 hrs by MTT assay relative to control. Format: functional.

For the compound `OC[C@H]1O[C@@H](N2c3ccccc3[C@]3(O)CCO[C@H]23)[C@H](O)[C@@H](O)[C@@H]1O`, the result in the experiment with C6 [1] was inactive.

Consider `OC[C@@H]1O[C@H](N2c3ccccc3[C@]3(O)CCO[C@H]23)[C@@H](O)[C@H](O)[C@H]1O`, for which the figures for the Activity in the experiment with C6 [2], in the experiment on C6 [3] and in the experiment on C6 [5] were 92.4%, 87.9% and 83.9%, respectively. For the same compound, in the experiment with C6 [4], the outcome was inactive.

For `O[C@@]12CCO[C@@H]1Nc1ccccc12`, the Activity is 112% with C6 [6] and 114.2% in the experiment on C6 [7].
